Reference: patent publication US11351218B2, “Composition for preventing or treating glioblastoma comprising Platycodon grandiflorum A. De Candolle, Scutellaria baicalensis, Phellodendron amurense Ruprecht or Rubus coreanus” (University-Industry Cooperation Group of Kyung Hee …, priority 2019, dated 2022)
Residues, ends and D or L forms follow the SMILES beside them. *: point of attachment. Cbz = O=C(OCc1ccccc1)*; CH2F = FC*

Tests used:
[1] = system: U87MG and U373MG cells; assay: Cholesterol cell-based detection assay (filipin III staining) in GBM cells; design: species or system human
Experimental: (§1) FIGS. 15A and 15B show the results that PD promotes accumulation of cholesterol in lysosomes. Cells were treated with DMSO, PD (10 μM), or U18666a (1 μM) for 24 hours. […] Total cholesterol levels are expressed in cholesterol (μg) per protein (mg) of cell lysate and are shown as means±SD from two independent experiments.
Cells grown on coverslips were treated with the materials. Then, the cells were fixed with 4% PFA at room temperature for 10 minutes. The solution of Filipin III (Cayman) was added for staining of […] cholesterol and the samples were incubated in a dark room for 30 minutes. The images were examined under a Zeiss laser confocal microscope.
The present inventors concluded that PD inhibits the maturation of autophagosome into autolysosomes by inhibiting lysosomal degradation and an autophagosome-lysosome fusion in GBM cells. […] To examine whether the defect in the autophagosome-lysosome fusion by PD is due to altered intracellular cholesterol levels, the PD-treated GBM cells were stained with filipin-III, which is a fluorescent dye that binds to cholesterol. […] As can be confirmed in FIG. 14A, this filipin-III staining pattern is very similar to that found in GBM cells treated with U18666A, implying that PD blocks cholesterol release from lysosome and accumulates cholesterol in lysosomes.

[2] = system: U87MG and U373MG cells; assay: Cholesterol measurement (total cholesterol assay kit) in GBM cells; type: cell-based, human; settings: PD 10 μM or U18666a 1 μM, 24 hours
Experimental: as §1
Cells treated as described above were processed using a total cholesterol assay kit (STA384, Cell Biolabs) according to the manufacterer's instructions. Cholesterol esters and free cholesterol were quantified by homogenizing 10^6 cells extracted from a 200 μL mixture of chloroform: isopropanol: NP-40 (7:11:0.1). After centrifugation of the extract at 15,000× g for 10 minutes, the organic phase was collected and evaporated at 50° C. The extract was resuspended in 200 μL of a 1× cholesterol assay diluent prior to analysis. The colorimetric signal was analyzed using an ELISA reader (Versa Max, Molecular Devices, Sunnyvale, Calif., USA) at 540 nm. Cellular cholesterol results were reported as μg of cholesterol per mg of cell protein.

[3] = system: LDLR; assay: Immunoblot of LDLR in U87MG, U373MG cells and normal astrocytes; type: cell-based, human; settings: PD 5 μM and 10 μM or U18666a 1 μM, 24 hours; U87MG, U373MG and normal astrocytes
Experimental: (§2) FIGS. 16A to 16D show the results that PD increases the expression of LDLR on cell surfaces in GBM cells. […] GAPDH was used as a loading control. […] GAPDH was used as a loading control.
(§3) Cells treated with the concentrations and materials described in FIGS. 1-3B, 7, 8, 10, 13, 16, 18, and 20 were lysed in buffer containing 20 mM Tris-HCl (pH 7.5), 150 mM NaCl, 1 mM EDTA, 1 mM Na2EDTA, 1 mM EGTA, 1% NP-40, 1% sodium deoxycholate, 1 mM Na3VO4, 1 mM MPI, 1 mM PMSF, and PI cocktails for 15 to 20 minutes on ice. Cell lysates were separated by SDS-PAGE and transferred to nitrocellulose membranes. Immunodetection was performed with the following primary antibodies: rabbit anti-LC3B, rabbit anti-cathepsin B, rabbit-anti GAPDH (Cell Signaling Technology, Danvers, Mass.), mouse anti-SQSTM1/p62, and goat anti-cathepsin D (Santa CruzKPL, Gaithersburg, Md., USA) were incubated at room temperature for 1 hour. The protein bands were detected with ECL western Blotting Substrate (Thermo Fisher Scientific, Waltham, Mass., USA).
(§4) Brain is the most cholesterol-rich organ of the body, containing about 20% of total body cholesterol. […] As can be confirmed in FIG. 16A, in consistent with these reports, the LDLR protein level was markedly elevated in U87MG and U373MG cells relative to normal human astrocytes. […] Then, the cell surface expression of LDLR was confirmed by flow cytometry.

[4] = system: cell-surface LDLR; assay: Cell surface LDLR analysis by flow cytometry, GBM cells; type: cell-based, human; settings: PD 10 μM or U18666a 1 μM, 24 hours
Experimental: as §2
(§5) Cells treated as described in FIG. 16 were separated from plates and resuspended in PBS. After washing with 1% BSA in PBS, the cells were incubated with a primary antibody against human LDLR (Abcam) for 30 minutes. Then, the cells were washed before incubation with an Alexa-Fluor 488-conjugated secondary antibody (Invitrogen) for 30 minutes. The stained cells were washed and resuspended. Fluorescence was analyzed by a FACScalibur flow cytometer (Becton Dickinson, San Jose, Calif., USA) using CellQuest™ software.
as §4

[5] = system: cell-surface LDLR; assay: Cell surface LDLR analysis by flow cytometry, normal astrocytes; type: cell-based, human; settings: PD 10 μM or U18666a 1 μM, 24 hours
Experimental: as §2, §5, §4

[6] = system: U87MG and U373MG cells; assay: BODIPY FL LDL uptake assay, GBM cells; type: cell-based, human; settings: U18 1 μM 24 hours, BODIPY FL LDL 1 hour
Experimental: (§6) Cells were treated with DMSO, PD (10 μM), or U18 (1 μM) for 24 hours and subsequently loaded with BODIPY™ FL LDL. BODIPY-LDL uptake was visualized by confocal microscopy. Nuclei were stained with DAPI (blue). Quantification shown on the right graph represents a relative fold change from three independent experiments±SD.
(§7) Cells seeded on coverslips were treated with the materials and then the culture medium was replaced with BODIPY™ FL LDL (Thermo Fisher Scientific) at a working concentration of 5 μg/mL in a medium. The cells were additionally incubated at 37° C. for 1 hour. The degree of LDL uptake was measured using a Zeiss laser confocal microscope.
(§8) Based on the previous study results of the present inventors that PD increases cell surface LDLR expression and accumulate cholesterol within lysosomes, whether PD can increase the uptake of exogenous LDL was examined Cells pretreated with PD or U18666A were incubated with BODIPY FL-labeled LDL particles for 1 hour and the LDL uptake was observed by a confocal microscope. Upon analysis of these cells, it was observed that PD caused about a 6-fold increase in LDL uptake and it was a level similar to that detected in the U18666A-treated cells.

[7] = system: normal astrocytes; assay: BODIPY FL LDL uptake assay, normal astrocytes; type: cell-based, human; settings: PD 10 μM or U18 1 μM, 24 hours
Experimental: as §6, §7, §8

[8] = system: Ax1; assay: Western blot of Ax1 expression after natural compounds, U87MG and U373MG cells; type: cell-based, human; settings: varying concentrations, 48 hours
Experimental: Cells were washed with PBS and dissolved using a RIPA buffer (150 mM NaCl, 1% NP-40, 0.5% DOC, 0.1% SDS, 50 mM Tris (pH 8.0), 1 mM EDTA, 1 mM PMSF, 1 mM NaF, 1 mM Na3PO4, 1 μL aprotinin, leupeptin, and pepstatin), and proteins were isolated by centrifugation at 3,000× g for 20 minutes. An equal amount (20 μg) of each of the proteins was separated by 10% sodium dodecyl sulfate-polyacrylamide gel electrophoresis (SDS-PAGE) and the proteins separated using the Trans-blot unit were transferred to a nitrocellulose (NC) membrane. The membrane to which proteins were transferred was blocked with 5% non-fat dry milk (Tris buffered saline (TBS-T) containing 0.1% Tween-20) at room temperature for 1 hour, and primary antibodies, which were diluted at a 1:1,000 concentration, were allowed to react the proteins at 4° C. for 16 hours. After washing with PBS, the resultant was allowed to react with secondary antibodies, which were diluted at a 1:5,000 concentration, at room temperature for 1 hour. A Pierce ECL Western Blotting Substrate, which also underwent a washing process, was coated onto the membrane and allowed to react in a dark room with a film, and thereby, specific protein bands were confirmed. […]

[9] = system: U87MG and U373MG cells; assay: WST1 cell viability assay, GBM cells; type: cell-based, human
Experimental: FIGS. 6A and 6B show the results that PD induces a decrease in cell viability and vacuole formation. […] Data shown represent the means of quintuplicate measurements which were repeated three times. The results are presented as a percentage of control (means±SD).
Cell cytotoxicity was assessed by WST1 assay. U87 and U373 cells were each seeded in a 96-well plate (5×10^3 cells/well) and treated with different concentrations of platycodin D (PD). Then, cells were incubated with a WST1 reagent (Dogen, Seoul, Korea) for 2 hours before reading the plate. Absorbance was measured at 450 nm using an ELISA reader (Versa Max, Molecular Devices, Sunnyvale, Calif., USA).

[10] = system: LC3B and SQSTM1/p62; assay: Immunoblot of LC3B and SQSTM1/p62 in GBM cells (U87MG and U373MG); type: cell-based, human; settings: combined treatment MβCD 100 μM and PD 10 μM
Experimental: FIGS. 2A and 2B show the results that an extract of Platycodon grandiflorum (PG) increases the levels of LC3-II and p62. […] GAPDH was used as a loading control.
FIGS. 3A to 3C show the results that PD inhibits autophagic flux in GBM cells. […] The expression of LC3B and SQSTM1 was confirmed by immunoblot analysis. […] GAPDH was used as a loading control.
The human glioma cell lines, U87MG and U373MG, were cultured respectively in RPMI-1640 (Welgene) and DMEM (Welgene, Daegu, Korea) supplemented with 10% fetal bovine serum (FBS, JR Scientific) and 1% antibiotics (Ab, Welgene). All cultures were maintained at 37° C. in a humidified incubator containing 5% CO2.
as §3

[11] = system: U87MG and U373MG cells; assay: LysoTracker assay with GFP-LC3B (autophagosome-lysosome fusion) in GBM cells; type: cell-based, human; settings: co-treatment MβCD 100 μM and PD 10 μM, 48 hours
From the text: […] Then, cells were stained with LysoTracker (red) and DAPI (blue). The merged images show an overlap between GFP-LC3 and LysoTracker (yellow). The panels on the right are higher-magnification images of the boxed regions.
Cultured cells seeded in plates with microscope coverslips were transfected with a pGFP-LC3B plasmid using Lipofectamine 3000 (Thermo Fisher Scientific) according to the manufacturer's instructions. After the transfection, the cells were fixed with 4% paraformaldehyde (PFA) in phosphate-buffered saline (PBS) at room temperature for 10 minutes. The images were examined under a laser confocal microscope (Zeiss, Oberkochen, Baden-Wurttemberg, Germany).
To stain acidic compartments, 50 nM LysoTrackerRedDND-99 (Thermo Fisher Scientific) was added to a medium at 37° C. with 5% CO2 for 30 minutes prior to fixation. The nuclei were labeled with 4,6-diamidino-2-phenylindole (DAPI, Sigma). The slides were finally mounted using a Faramount mounting medium (Dako, Glostrup, Denmark). The images were examined under a Zeiss laser confocal microscope.
Experimental Result 11. PD Blocks Fusion of Autophagosomes with Lysosomes. Since p62 was accumulated in autophagosomes by PD treatment, it was speculated that PD may cause the lysosomal dysfunction like bafilomycin A1, which inhibits vacuolar H^+-ATPase (V-ATPase)-dependent lysosomal acidification and blocks autophagosome-lysosome fusion. Thus, the PD-treated cells with LysoTracker Red, which is a marker for acidic compartment including lysosomes was stained to examine the colocalization of GFP-LC3B.

[12] = system: cathepsin B and D; assay: Immunoblot of cathepsin B and D processing in GBM cells; type: cell-based, human; settings: addition of MβCD 100 μM to PD 10 μM-treated cells
Experimental: Immunoblot analyses for the processing of endogenous CTSB and CTSD are shown (upper, immature form/lower, mature form of CTSB and CTSD). GAPDH was used as a loading control.
as §3
To confirm whether PD functions as an autophagy inhibitor, the effects of PD on lysosomal proteases, cathepsin B and D, were examined Autophagy is a lysosome-mediated and self-degradative process that requires lysosomal cysteine proteases known as cathepsins. Since pro-cathepsins are cleaved into a mature form in lysosomes, the 33 kD active cleaved form of cathepsins has been commonly used as a marker for lysosomal activity. As can be confirmed in FIG. 13, while the mature forms of cathepsin B and D proteins were decreased, immature forms of those protein were increased after PD treatment in U87MG and U373MG cells, implying that PD suppresses a lysosomal function by downregulating the lysosomal proteolytic activity.

[13] = system: U87MG and U373MG cells; assay: Clonogenic assay, GBM cells; type: cell-based, human; settings: co-treatment MβCD 100 μM with PD 10 μM or 20 μM, 7 days
Experimental: FIGS. 19A and 19B show the results that MβCD restores PD-mediated decrease in cell viability. […] Data shown represent the means of quintuplicate measurements which were repeated three times. The results are presented as a percentage of control (means±SD).
Approximately 2×10^3 cells were seeded into each 6-well plate and then treated as described in FIG. 19. After 7 days, the cells were washed with PBS and stained with 0.5% crystal violet.
Furthermore, as can be confirmed in FIG. 19B, a colony formation assay was performed to confirm the effects of MβCD on PD-mediated GBM cell death.

## CCN(CC)CCO[C@H]1CC[C@@]2(C)C(=CC[C@@H]3[C@@H]2CC[C@]2(C)C(=O)CC[C@@H]32)C1 [U18666A, reference compound]
[1]; PD 10 μM or U18666a 1 μM, 24 hours
  cellular cholesterol distribution (filipin-III staining): very similar
[2]
  free cholesterol levels: significant increase
[3]
  LDLR expression: increased the LDLR expression
[4]
  cell surface expression of LDLR: shift of the FL-1 histogram peak toward right
[5]
  changes in peak shift (cell surface LDLR): very negligible
[6]
  LDL uptake level compared with PD: similar
[7]
  LDL uptake: less effective

## O=C(O)[C@H]1O[C@@H](Oc2cc3oc(-c4ccccc4)cc(=O)c3c(O)c2O)[C@H](O)[C@@H](O)[C@@H]1O [baicalin]
[8]
  expression of Ax1: reduced the expression of Ax1

## O=c1c(O)c(-c2ccc(O)c(O)c2)oc2cc(O)cc(O)c12 [quercetin]
[8]
  expression of Ax1: reduced the expression of Ax1

## COC(=O)C[C@H](NC(=O)[C@H](C)NC(=O)[C@@H](NC(=O)OCc1ccccc1)C(C)C)C(=O)CF [z-VAD-fmk, reference compound] (Cbz-Val-Ala-Asp(OMe)-CH2F)
[9]; z-VAD-fmk 50 μM with PD 10 μM and 20 μM, 48 hours
  cell viability, co-treatment vs PD-alone: little impact

## methyl β-cyclodextrin [MβCD, reference compound]
[10]
  changes in LC3-II and p62 levels increased by PD alone: almost completely restored
[9]; combined treatment MβCD 100 μM and PD 10 μM, 72 hours
  viability of GBM cells: significantly restored the viability
[11]
  colocalization of GFP-LC3B puncta with LysoTracker Red fluorescence: remarkable increase
[12]
  activity of cathepsin B: recovered activity
[1]; PD 10 μM 24 hours, then MβCD 100 μM 48 hours
  accumulated cholesterol in lysosomes: successfully depleted
[13]
  colony-forming ability: almost completely recovered
